From publication PMC6934657, “Transdermal delivery of nobiletin using ionic liquids” (Scientific Reports, 2019)
Values after ≈ are worked out from the molar mass of the structure shown. Values belong to the compound of their own block, whether it stands above or below them.

Columns and labels:
blood glucose level [1] = system: blood glucose level; design: method as in PMID 28337858; details: transdermal insulin delivery using CAGE; cited from earlier work
[2] = design: method as in doi:10.2525/ecb.56.161, PMID 18951932; details: cited from earlier work
[3] = cited from earlier work
blood glucose level [4] = test: Hypoglycemic activity after transdermal administration to SD rats; type: in vivo; details: transdermal with CAGE, 10 mg/kg
Protocol: The hypoglycemic activity of the NOB/CAGE sample was evaluated following the same protocol used for the transdermal tests in vivo using SD rats as described in Section 2.4. A 5 mg/mL solution of PBS, NOB/PBS, or NOB/CAGE was transdermally administered to the donor area of the rats (10 mg/kg) and blood was collected from the tail vein after 1, 2, 4, 8, 12, and 24 h. Blood glucose was measured using a commercial glucose meter (ACCU-CHEK® ST Meter, ACCU-CHEK® ST Strip, Roche Diagnostics K.K., Tokyo, Japan) (n = 5).

[5] = In vitro skin penetration test using Franz diffusion cell; type: in vitro ADME, Yucatan micropig; details: 24 h
Protocol: Porcine skin stored at −70 °C was thawed at 37 °C for 30 min, and then cut into a circle 3.5 cm in diameter. The adipose tissue of this skin was scraped off with a razor. The skin was sandwiched between the acceptor side of a Franz diffusion cell (FDC) (PermeGear, Hellertown, PA, USA) filled with phosphate buffered saline (PBS) solution, and the donor of the FDC, and both sides of the FDC were fixed with a clip. The skin was stretched without wrinkles and the acceptor was degassed. Then, 300 μL of 1, 2, 5, 7, and 10 mg/mL NOB/PBS or NOB/CAGE were added to the donor and incubated for 24 h at 37 °C. After incubation, samples in the donor were removed and the skin was washed up to 5 times with PBS solution. The skin was removed from the FDC and punched out according to the administration area. A tape stripping method was used with ten tapes to obtain parts of the stratum corneum (SC). The remaining epidermis was scraped with a razor and separated from the dermis. NOB was eluted from these tissue samples using methanol: PBS = 1:1 for 24 h. The solutions were centrifuged at 3,000 rpm at 25 °C for 3 min and the supernatant was passed through a membrane filter (pore size: 0.20 µm, Toyo Roshi Co. Ltd.). The amount of NOB in the SC, epidermis, dermis, and acceptor was quantitatively determined by HPLC as described in Section 2.1.2. […] To compare the permeation ability of CAGE with other skin permeation reagents, additional 24-h transdermal tests were performed using 1 mg/mL NOB/diethylene glycol monoethyl ether (DGME): PBS = 1:1 (v:v) and NOB/ethanol (EtOH): […]

[6] = Measurement of NOB solubility in CAGE; type: physicochemical; details: shaken at 37 °C for 48 h, HPLC
Protocol: An excess amount of NOB was added to CAGE in test tubes and the tubes were shaken at 37 °C for 48 h. The supernatants were then collected and filtered through a filter with a pore size of 0.20 µm (Toyo Roshi Co. Ltd., Tokyo, Japan), and the concentration of NOB was determined by high-pressure liquid chromatography (HPLC) (Shimadzu LC-2010C, Kyoto, Japan) with the following conditions: mobile phase 0.1% formic acid in water (solvent A) and acetonitrile (solvent B) (0–20 min, 52.5–75% solvent A); flow rate 1 mL/min; injection volume 5 µL; column Develosil ODS-HG-5, 4.6 mm × 150 mm, 5 µm particle size; column temperature 40 °C; UV detector wavelength 285 nm.

[7] = design: method as in PMID 27076076; details: oral, 200 mg/kg; cited from earlier work
[8] = cited from earlier work; remark: listed apart in the source
[9] = design: method as in PMID 30682442; details: cited from earlier work

Compound: insulin
Drop in the blood glucose level over 12 h (blood glucose level [1]): ~40%

Compound: O=c1c(O)c(-c2ccc(O)c(O)c2)oc2cc(O)cc(O)c12 [quercetin, reference compound]
BA in men [2]: 1%
Solubility in water [3]: 1.4 µg/mL (≈ 0.00463 mM)

Ratio of NOB in deeper fractions (epidermis + dermis + acceptor) to total NOB transferred to the skin ([5]; 1 mg/mL NOB in 50:50 (v:v) DGME: PBS): 41%
Ratio of NOB in deeper fractions (epidermis + dermis + acceptor) to total NOB transferred to the skin ([5]; 1 mg/mL NOB in 50:50 (v:v) EtOH: PBS): 54%
Ratio of NOB in deeper fractions (epidermis + dermis + acceptor) to total NOB transferred to the skin ([5]; 1 mg/mL NOB in CAGE): 77%
Ratio of NOB in deeper fractions (epidermis + dermis + acceptor) to total NOB transferred to the skin ([5]; 1 mg/mL NOB in PBS): 28%
Order of amount of NOB detected in the acceptor by solvent ([5]; 1 mg/mL NOB): CAGE > EtOH: PBS > PBS > DGME
solubility at 48 h [6]: 7200 µg/mL (≈ 17.9 mM)
Compound: COc1ccc(-c2cc(=O)c3c(OC)c(OC)c(OC)c(OC)c3o2)cc1OC [NOB, Nobiletin]
Decrease in the blood glucose level over 12 h (blood glucose level [4]): at most 34%
Solubility of NOB in water ([3]; in water, ref Onoue et al.[11]): 16 µg/mL
Water solubility ([3]; ref 14 (Fig. 1: Onoue et al.[11])): 16.2 µg/mL
Blood glucose level accompanied with insulin injection [7]: caused a drop in the BGL
Weight gain [7]: significantly suppressed weight gain
Oral bioavailability in rat ([8]; oral administration of NOB crystals to rats, ref 14 (Fig. 1: Onoue et al.[11])): 0.85%

Compound: COc1ccc(-c2cc(=O)c3c(OC)c(OC)c(OC)c(OC)c3o2)cc1OC [crystalline NOB, Nobiletin]
Oral BA of crystalline NOB ([8]; oral, 2 mg/kg): 0.46%

Compound: O=c1c(O)c(-c2ccc(O)cc2)oc2cc(O)cc(O)c12 [kaempferol, reference compound]
BA [9]: 2%
Solubility in water [3]: 180 µg/mL (≈ 0.629 mM)
